# Assay results published in ChEMBL document CHEMBL1140784, “Leishmanicidal and trypanocidal activities of 2-aminocyclohexanol and 1,2-cyclohexanediamine derivatives” (Bioorg Med Chem Lett, 2008).
# How the values were obtained:
# Leishmania amazonensis = experiment: Antileishmanial activity against Leishmania amazonensis IFLA/BR/67 promastigotes at pH 8.0 after 72 hrs; type: functional, organism-based
# Leishmania donovani = experiment: Antileishmanial activity against Leishmania donovani MHOM/BR/74/PP75 promastigotes after 72 hrs; settings: MHOM/BR/74/PP75, 72 h
# Leishmania braziliensis = experiment: Antileishmanial activity against Leishmania braziliensis MHOM/BR/75/M2903 promastigotes after 72 hrs; type: functional, organism-based; settings: MHOM/BR/75/M2903, 72 h
# Trypanosoma cruzi = experiment: Antitrypanosomal activity against Trypanosoma cruzi Tulahuen epimastigotes after 72 hrs; type: functional, organism-based
IC50 (Leishmania amazonensis) [µM],IC50 (Leishmania donovani) [µM],IC50 (Leishmania braziliensis) [µM],IC50 (Trypanosoma cruzi) [µM],SMILES
11.6,13.3,13.3,8.8,CCCCCCCCCCCCC/C=C1/CCC[C@H](O)[C@H]1OC(C)=O
7.3,9.6,7.3,1.2,CCCCCCCCCCCCC/C=C1/CCC[C@@H](NCCCC)[C@@H]1OC(C)=O
15.5,13,10.8,98,CCCCCCCCCCCCC/C=C1/CCC[C@@H](NCc2ccccc2)[C@@H]1NCCCCCC
0.2,–,0.2,–,C[C@@H]1[C@H](O)[C@@H](C)/C=C/C=C/C=C/C=C/C=C/C=C/C=C/[C@H](O[C@@H]2O[C@H](C)[C@@H](O)[C@H](N)[C@@H]2O)C[C@@H]2O[C@](O)(C[C@@H](O)C[C@@H](O)[C@H](O)CC[C@@H](O)C[C@@H](O)CC(=O)O[C@H]1C)C[C@H](O)[C@H]2C(=O)O (stereo in doubt) [AMPHOTERICIN B]
1.1,1.1,1.1,0.14,CCCCCCCCCCCCC/C=C1/CCC[C@H](O)[C@H]1NCCN (relative stereo)
0.26,0.29,0.29,0.19,CCCCCCCCCCCCCC[C@@H]1CCC[C@H](O)[C@H]1N (relative stereo)
157,157,148,106,CCCCCCCCCCCCC/C=C1/CCC[C@H](OCc2ccccc2)[C@H]1N(CC)CC
29.4,29.4,29.4,–,N=C(N)c1ccc(OCCCCCOc2ccc(C(=N)N)cc2)cc1 [PENTAMIDINE]
14,17.4,14,116,CCCCCCCCCCCCC/C=C1/CCC[C@@H](NCCCC)[C@@H]1NCCCCCC
9.1,8.6,8.8,8.6,CCCCCCCCCCCCC/C=C1/CCC[C@H](NCCCC)[C@H]1OC(C)=O
–,–,–,74,O=C(Cn1ccnc1[N+](=O)[O-])NCc1ccccc1 [BENZNIDAZOLE]

SMILES,IC50 (Leishmania amazonensis) [µM],IC50 (Leishmania donovani) [µM],IC50 (Leishmania braziliensis) [µM],IC50 (Trypanosoma cruzi) [µM]
CCCCCCCCCCCCC/C=C1/CCC[C@@H]2[C@H]1N2CCCCCC (stereo partly specified),2.4,1.8,2.4,51
CCCCCCCCCCCCC/C=C1/CCC[C@@H]2[C@H]1N2Cc1ccccc1 (stereo partly specified),16.2,19.9,16.2,31
